Molecules are shown by their SMILES. Where only a bound is given, the exact number is not on record here.

As usually defined, the IC50 is the concentration that gives 50% inhibition. Low values mean higher potency, high ones lower potency.

In the assay the target is PIK3CD (Human) (UniProt O00329). Nature of the assay: Assessment of PIK3CD Kinase Activity (Scintillation Proximity Assay). Background: SPA uses beads or plates that emit light when radiolabelled molecules are held near them.
PIK3CD (Human), sequence (O00329 whole entry, looked up): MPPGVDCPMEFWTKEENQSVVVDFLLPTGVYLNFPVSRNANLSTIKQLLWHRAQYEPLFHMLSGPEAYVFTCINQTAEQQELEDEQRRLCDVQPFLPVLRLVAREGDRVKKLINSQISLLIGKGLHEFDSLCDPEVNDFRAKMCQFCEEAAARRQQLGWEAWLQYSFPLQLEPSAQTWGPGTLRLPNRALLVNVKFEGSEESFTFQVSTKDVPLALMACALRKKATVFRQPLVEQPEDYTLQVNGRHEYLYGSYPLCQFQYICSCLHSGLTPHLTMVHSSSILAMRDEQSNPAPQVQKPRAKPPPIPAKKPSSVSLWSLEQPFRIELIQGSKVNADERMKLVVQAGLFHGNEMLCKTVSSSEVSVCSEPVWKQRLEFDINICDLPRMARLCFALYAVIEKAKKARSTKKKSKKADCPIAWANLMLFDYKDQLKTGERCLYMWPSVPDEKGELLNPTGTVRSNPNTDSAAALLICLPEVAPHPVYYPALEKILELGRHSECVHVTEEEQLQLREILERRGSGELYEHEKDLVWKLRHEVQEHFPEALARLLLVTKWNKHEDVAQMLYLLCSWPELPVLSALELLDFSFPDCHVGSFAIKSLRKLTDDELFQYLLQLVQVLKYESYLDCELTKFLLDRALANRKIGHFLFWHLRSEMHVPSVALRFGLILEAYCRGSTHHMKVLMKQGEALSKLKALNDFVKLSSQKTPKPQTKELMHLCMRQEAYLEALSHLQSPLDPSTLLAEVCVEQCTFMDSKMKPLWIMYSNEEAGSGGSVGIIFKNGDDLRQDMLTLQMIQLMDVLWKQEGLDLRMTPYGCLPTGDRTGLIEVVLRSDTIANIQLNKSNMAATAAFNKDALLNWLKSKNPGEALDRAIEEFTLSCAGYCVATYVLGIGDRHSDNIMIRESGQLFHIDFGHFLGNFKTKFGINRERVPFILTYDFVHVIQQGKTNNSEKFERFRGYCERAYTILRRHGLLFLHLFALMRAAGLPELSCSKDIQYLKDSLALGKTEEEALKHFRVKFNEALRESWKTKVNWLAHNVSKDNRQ
The compound `COc1c(C(C)n2ccc(=O)c3c(N)ncnc32)cc(Cl)c(C)c1-c1cccc(C(=O)N(C)C)c1` (centres undefined) returned an IC50 not above 10 nM.
To `CCOc1c(C(C)n2nc(C)c3c(N)ncnc32)cc(Cl)c(C#N)c1C1CN(CC)C1` (centres undefined) belongs not above 10 nM; to `CCOc1c(C(C)n2nc(C)c3c(N)ncnc32)cc(Cl)c(C)c1C1CN(C[C@@H](C)O)C1` (some centres undefined), not above 10 nM; to `COc1c(C(C)n2nc(C)c3c(N)ncnc32)cc(Cl)c(C)c1C1CN(C2CCOC2)C1` (centres undefined), not above 10 nM.
To `CCOc1c(C(C)n2nc(C)c3c(N)ncnc32)cc(Cl)c(C)c1-c1cncc(C(=O)N(C)C)c1` (centres undefined) belongs not above 10 nM.
As for `COc1c(C(C)n2nc(C)c3c(N)ncnc32)cc(Cl)c(C)c1-c1ccc(C(=O)N(C)CCO)nc1` (centres undefined), the IC50 is not above 10 nM.
In turn, `COc1c(C(C)n2nc(C)c3c(N)ncnc32)cc(Cl)c(C)c1-c1cnn(C(C)C(=O)N(C)C)c1` (centres undefined) returned an IC50 not above 10 nM.
To `COc1c(C(C)n2nc(C(F)F)c3c(N)ncnc32)cc(C#N)c(C)c1C1CN(CC(F)(F)F)C1` (centres undefined) belongs not above 10 nM; to `CCOc1c(C(C)n2nc(C)c3c(N)ncnc32)cc(Cl)c(C)c1-c1ccnc(C(=O)N(C)CCO)c1` (centres undefined), not above 10 nM.
To `COc1c(C(C)n2nc(C(F)F)c3c(N)ncnc32)cc(Cl)c(F)c1C1CN(C)C1` (centres undefined) belongs not above 10 nM; to `COc1c(C(C)n2nc(C)c3c(N)ncnc32)cc(Cl)c(C)c1-c1cnn(CCN(C)C)c1` (centres undefined), not above 10 nM.
To `CCOc1c(C(C)n2nc(C)c3c(N)ncnc32)cc(Cl)c(C)c1-c1ccc(C(=O)NC)nc1` (centres undefined) belongs not above 10 nM.
As to `CCOc1c(C(C)n2nc(C)c3c(N)ncnc32)cc(Cl)c(C#N)c1C1CN(C(C)(C)C(=O)NC)C1` (centres undefined), the IC50 is not above 10 nM.
To `CCOc1c(C(C)n2nc(C)c3c(N)ncnc32)cc(Cl)c(C#N)c1C1CN(C(=O)C2CC2)C1` (centres undefined) belongs not above 10 nM; to `COc1c(C(C)n2nc(C)c3c(N)ncnc32)cc(Cl)c(C#N)c1C1CN(C(=O)C2CC2)C1` (centres undefined), not above 10 nM; to `COc1c(C(C)n2nc(C)c3c(N)ncnc32)cc(Cl)c(C)c1-c1cncc(C#N)c1` (centres undefined), not above 10 nM.
To `CCOc1c(C(C)n2nc(C)c3c(N)ncnc32)cc(Cl)c(C#N)c1C1CN(C(=O)C(C)(C)C)C1` (centres undefined) belongs not above 10 nM.
To `COc1c(C(C)n2nc(C(F)F)c3c(N)ncnc32)cc(C#N)c(C)c1C1CN(CCO)C1` (centres undefined) belongs not above 10 nM; to `COC(=O)N1CC(c2c(C#N)c(Cl)cc(C(C)n3nc(C)c4c(N)ncnc43)c2OC)C1` (centres undefined), not above 10 nM.
`CCNC(=O)N1CC(c2c(C#N)c(Cl)cc(C(C)n3nc(C)c4c(N)ncnc43)c2OC)C1` (centres undefined) came in with an IC50 not above 10 nM.
To `COc1c(C(C)n2nc(C)c3c(N)ncnc32)cc(Cl)c(C)c1C1CN(CC(C)C)C1` (centres undefined) belongs not above 10 nM.
The compound `COc1c(C(C)n2nc(-c3cnn(C)c3)c3c(N)ncnc32)cc(Cl)c(C)c1C1CN(CC#N)C1` (centres undefined) came in with an IC50 not above 10 nM.
`COc1c(C(C)n2nc(C)c3c(N)ncnc32)cc(Cl)c(C#N)c1C1CN(C(=O)NC(C)(C)C)C1` (centres undefined) returned a half-maximal inhibitory concentration (IC50) not above 10 nM.
To `COc1c(C(C)n2nc(C)c3c(N)ncnc32)cc(Cl)c(C#N)c1C1CN(C(C)C)C1` (centres undefined) belongs not above 10 nM; to `CCNC(=O)c1c(C)c(Cl)cc(C(C)n2nc(-c3ccc4oc(N)nc4c3)c3c(N)ncnc32)c1OCC` (centres undefined), not above 10 nM.
`COc1c(C(C)n2cc(C)c(=O)c3c(N)ncnc32)cc(Cl)c(C)c1-c1ccc(C(=O)N(C)C)nc1` (centres undefined) returned an IC50 not above 10 nM.
To `CCOc1c(C(C)n2nc(C)c3c(N)ncnc32)cc(Cl)c(C#N)c1C1CN(C(C)=O)C1` (centres undefined) belongs not above 10 nM; to `CCOc1c(C(C)n2nc(C)c3c(N)ncnc32)cc(Cl)c(C#N)c1-c1cncc(C(=O)NC)c1` (centres undefined), not above 10 nM; to `COc1c(C(C)n2ccc(=O)c3c(N)ncnc32)cc(Cl)c(C)c1-c1cncc(F)c1` (centres undefined), not above 10 nM.
To `COc1c(C(C)n2nc(C)c3c(N)ncnc32)cc(Cl)c(C)c1-c1ccc(N)nc1` (centres undefined) belongs not above 10 nM; to `CCS(=O)(=O)N1CC(c2c(C#N)c(Cl)cc(C(C)n3nc(C)c4c(N)ncnc43)c2OC)C1` (centres undefined), not above 10 nM; to `COc1c(C(C)n2nc(C)c3c(N)ncnc32)cc(Cl)c(C)c1C1CN(C(C)CF)C1` (centres undefined), not above 10 nM.
With `CCOc1c(C(C)n2nc(I)c3c(N)ncnc32)cc(Cl)c(C)c1-c1ccc(C(=O)N(C)C)nc1` (centres undefined), the IC50 is not above 10 nM.
To `CCOc1c(C(C)n2nc(C)c3c(N)ncnc32)cc(Cl)c(C#N)c1C1CN(C(N)=O)C1` (centres undefined) belongs not above 10 nM.
To `CCOc1c(C(C)n2nc(CNC)c3c(N)ncnc32)cc(Cl)c(C)c1-c1ccc(C(=O)N(C)C)nc1` (centres undefined) belongs 50 to 200 nM; to `CCOc1c(C(C)n2nc(-c3cncc(C#N)c3)c3c(N)ncnc32)cc(Cl)c(C)c1-c1ccc(C(=O)N(C)C)nc1` (centres undefined), not above 10 nM; to `COc1c(C(C)n2nc(C)c3c(N)ncnc32)cc(Cl)c(C)c1C1CN(CC#N)C1` (centres undefined), not above 10 nM.
To `COc1c(C(C)n2nc(-c3cn[nH]c3)c3c(N)ncnc32)cc(Cl)c(C)c1C1CN(CC#N)C1` (centres undefined) belongs not above 10 nM; to `CCOc1c(C(C)n2nc(C)c3c(N)ncnc32)cc(Cl)c(C#N)c1N1CC(OC)C1` (centres undefined), not above 10 nM.

Source of the values: the Kinase Knowledgebase extract (Sharma et al. 2016).
